This assay concerns the target human αvβ3 receptor (Homo sapiens, UniProt P05106+P06756). As to the kind of experiment: Kistrin/Vitronectin Receptor (αvβ3) ELISA test. Type of assay: binding. Conditions: Kistrin-coated plates, 3 hours at ambient temperature, 4B12-HRP detection, read-out: K/VnR IC50. As to the method: Pharmacological Test: Kistrin/Vitronectin Receptor (αvβ3) ELISA Test Protocol:
96-well MaxiSorp plates are coated overnight at […] with 100 μl of Kistrin at 1 μg/ml (dilution in coating buffer: 0.05M carbonate)/NaOH pH 9.6. The next day, the wells are emptied and the ligands (kistrin) are then fixed (fixation buffers: PBS containing 0.5% BSA (pH=7.4)) for 1 hour at ambient temperature under gentle agitation of 125 rpm. The wells are washed six times (washing buffer: PBS containing 0.05% Tween 20 (pH 7.7) then the following is added per well and in this order:
40 μl of incubation buffer
10 μl of the dilution of the product to be tested (the products are diluted in a 50:50 DMSO/water mixture)
50 μl of human αvβ3 receptor (cf Pytel et al. Methods Enzymol. (1987) 144 (Dilution in incubation buffer, adapted according to the batch of receptor and according to the ligand). The ligand, the αvβ3 receptor and the products to be studied are incubated for 3 hours at ambient temperature with gentle agitation of 125 rpm.
The wells are again washed six times, then incubated for 2 hours at ambient temperature with mild agitation of 125 rpm, in the presence of 100 μl of anti-receptor antibody coupled to a peroxidase (The 4B12-HRP antibody is diluted in incubation buffer (50 mM TRIS pH 7.4; 0.5% BSA; 0.05% Tween 20; 1 mM MnCl2; 50 μM CaCl2; 50 μM MgCl2; 100 mM NaCl). The dilution is to be adapted according to the batch of receptor.
The wells are then washed six times before measurement of the ligand-receptor bond is carried out using a peroxidase developer kit (TBM Microwell Peroxidase Substrate System Kirkegaard; Ref cat 50-76-00).
This kit contains a flask A of substrate (3,3′,5,5′-tetramethylebenzidine at 0.4 g/l) and a flask B (H2O2 to 0.02% in Citrate/Citric acid). Extemporaneously, one volume of A is mixed with one volume of B, then the reaction mixture is distributed at a rate of 100 μl/wells.
The enzymatic reaction develops between 6 to 10 minutes for Kistrin/αvβ3 then its development is stopped by the addition of 100 μl of 1M phosphoric acid. The optical density is determined at 450 nm.
Expression of the Results
The following curve is plotted: the bond percentage as a function of the logarithm of each concentration of the tested product.
For each product IC50 is determined according to the following formula: IC50=(B0+Bmin)/2 B0=Maximum bond in the absence of any product Bmin=Minimum bond in the presence of the highest concentration of the product.
For orientation: An ELISA detects its analyte on a solid surface through an enzyme-linked reagent.

Structures are written as SMILES.

Chain of human αvβ3 receptor (P06756 31-889 limits assumed): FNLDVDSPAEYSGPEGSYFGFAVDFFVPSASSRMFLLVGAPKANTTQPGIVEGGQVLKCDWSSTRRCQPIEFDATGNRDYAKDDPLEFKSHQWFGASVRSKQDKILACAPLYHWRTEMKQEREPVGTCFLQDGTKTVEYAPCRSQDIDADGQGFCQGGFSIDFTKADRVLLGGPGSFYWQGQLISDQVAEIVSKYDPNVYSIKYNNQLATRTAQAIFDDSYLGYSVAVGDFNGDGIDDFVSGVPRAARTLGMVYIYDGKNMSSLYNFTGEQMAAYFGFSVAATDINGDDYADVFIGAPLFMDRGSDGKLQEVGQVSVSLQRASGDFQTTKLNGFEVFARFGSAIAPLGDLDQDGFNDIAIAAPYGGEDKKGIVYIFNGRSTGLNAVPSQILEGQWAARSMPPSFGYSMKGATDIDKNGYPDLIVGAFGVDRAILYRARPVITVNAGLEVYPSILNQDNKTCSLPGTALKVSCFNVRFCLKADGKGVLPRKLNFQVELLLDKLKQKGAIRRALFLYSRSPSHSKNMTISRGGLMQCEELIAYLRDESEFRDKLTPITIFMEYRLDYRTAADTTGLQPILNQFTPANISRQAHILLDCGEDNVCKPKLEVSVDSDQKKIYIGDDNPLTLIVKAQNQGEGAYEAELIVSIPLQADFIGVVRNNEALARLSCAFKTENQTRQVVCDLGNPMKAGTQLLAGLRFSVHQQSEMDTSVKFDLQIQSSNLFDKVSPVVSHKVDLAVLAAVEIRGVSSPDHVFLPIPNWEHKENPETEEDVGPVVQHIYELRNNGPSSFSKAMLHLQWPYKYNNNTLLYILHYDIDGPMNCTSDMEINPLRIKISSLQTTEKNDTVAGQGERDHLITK
Chain of human αvβ3 receptor (P06756 891-1048 limits assumed): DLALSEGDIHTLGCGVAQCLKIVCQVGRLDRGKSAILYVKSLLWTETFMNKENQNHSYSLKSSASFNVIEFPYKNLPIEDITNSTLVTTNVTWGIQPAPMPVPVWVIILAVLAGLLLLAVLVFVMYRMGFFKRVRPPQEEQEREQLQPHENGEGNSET
Chain of human αvβ3 receptor (P05106 27-788): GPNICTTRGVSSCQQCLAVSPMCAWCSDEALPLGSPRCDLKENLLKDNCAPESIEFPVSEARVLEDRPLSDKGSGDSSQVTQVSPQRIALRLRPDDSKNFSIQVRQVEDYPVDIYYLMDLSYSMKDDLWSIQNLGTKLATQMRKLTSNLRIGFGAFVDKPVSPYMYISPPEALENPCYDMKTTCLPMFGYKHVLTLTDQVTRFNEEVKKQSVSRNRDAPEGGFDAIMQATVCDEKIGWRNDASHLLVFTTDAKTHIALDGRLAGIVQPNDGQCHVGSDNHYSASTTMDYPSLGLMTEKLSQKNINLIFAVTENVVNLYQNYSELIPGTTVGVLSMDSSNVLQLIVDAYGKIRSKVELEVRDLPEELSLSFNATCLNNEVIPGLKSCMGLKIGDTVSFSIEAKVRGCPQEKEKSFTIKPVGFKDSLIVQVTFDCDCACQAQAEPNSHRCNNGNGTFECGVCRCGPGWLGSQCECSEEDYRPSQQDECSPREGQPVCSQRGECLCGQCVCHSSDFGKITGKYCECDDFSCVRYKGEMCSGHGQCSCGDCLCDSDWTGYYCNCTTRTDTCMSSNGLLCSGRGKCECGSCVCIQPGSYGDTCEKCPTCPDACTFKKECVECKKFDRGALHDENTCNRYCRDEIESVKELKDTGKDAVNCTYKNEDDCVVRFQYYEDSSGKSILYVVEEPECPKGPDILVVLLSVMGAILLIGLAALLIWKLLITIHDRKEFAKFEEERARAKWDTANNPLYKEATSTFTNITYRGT

As for `CC(CCc1ccc(OCCC(NC(=O)OCc2ccccc2)C(=O)O)cc1)=NNC1=NCCN1` (mixture of isomers) [ex 1, O-[4-[3-[(4,5-Dihydro-1H-imidazol-2-yl)hydrazono]butyl]-phenyl]-N-[(phenylmethoxy)carbonyl]-homoserine.], the IC50 turned out to be 150 nM.
The value for `CC(CCc1ccc(OCCC(NC(=O)OCc2ccccc2)C(=O)O)cc1)=NNC(=N)N` (mixture of isomers) [ex 2, O-[4-[3-[(Aminoiminomethyl)hydrazono]butyl]phenyl]-N-[(phenylmethoxy)carbonyl]-homoserine] was 1350 nM; that for `N=C(N)NN=CCCc1ccc(OCCC(NC(=O)OCc2ccccc2)C(=O)O)cc1` (mixture of isomers) [ex 4, O-[4-[3-[(Aminoiminomethyl)hydrazono]propyl]phenyl]-N-[(phenylmethoxy)carbonyl]-homoserine] was 450 nM.
The value for `CC(Cc1ccc(OCCC(NC(=O)OCc2ccccc2)C(=O)O)cc1)=NNC1=NCCN1` (mixture of isomers) [ex 5] was 22 nM; that for `CC(CCc1cccc(OCCC(NC(=O)OCc2ccccc2)C(=O)O)c1)=NNC1=NCCN1` (mixture of isomers) [ex 9, O-[3-[3-[(4,5-Dihydro-1H-imidazol-2-yl)hydrazono]butyl]-phenyl]-N-[(phenylmethoxy)carbonyl]-homoserine] was 2000 nM; that for `CC(Cc1cccc(OCCC(NC(=O)OCc2ccccc2)C(=O)O)c1)=NNC1=NCCN1` (mixture of isomers) [ex 10, O-[3-[2-[(4,5-Dihydro-1H-imidazol-2-yl) hydrazono]propyl]-phenyl]-N-[(phenylmethoxy)carbonyl]-homoserine] was 355 nM.
The same measure for `N=C(N)NN=CCCc1cccc(OCCC(NC(=O)OCc2ccccc2)C(=O)O)c1` (mixture of isomers) [ex 11, O-[3-[3-[(Aminoiminomethyl)hydrazono]propyl]phenyl]-N-[(phenylmethoxy)carbonyl]-homoserine]: 3250 nM; for `O=C(NC(CCOc1ccc(CC/C=N\NC2=NCCN2)cc1)C(=O)O)OCc1ccccc1` (racemic) [ex 3, O-[4-[3-[(4,5-Dihydro-1H-imidazol-2-yl)hydrazono]propyl]-phenyl]-N-[(phenylmethoxy)carbonyl]-homoserine]: 110 nM; for `COc1cc(C/C(C)=N/NC2=NCCN2)ccc1OCCC(NC(=O)OCc1ccccc1)C(=O)O` (racemic) [ex 6, O-[4-[2-[(4,5-Dihydro-1H-imidazol-2-yl)hydrazono]propyl]-2-methoxyphenyl]-N-[(phenylmethoxy)carbonyl]-homoserine]: 12 nM.
With `C/C(Cc1ccc(OCCC(NC(=O)OCc2ccccc2)C(=O)O)c(F)c1)=N\NC1=NCCN1` (racemic) [ex 7, O-[4-[2-[(4,5-Dihydro-1H-imidazol-2-yl)hydrazono]propyl]-2-fluorophenyl]-N-[(phenylmethoxy)carbonyl]-homoserine], the IC50 stood at 22 nM.
The same measure for `O=C(NC(CCOc1cccc(CC/C=N/NC2=NCCN2)c1)C(=O)O)OCc1ccccc1` (stereo not drawn) [ex 12, O-[3-[3-[(4,5-Dihydro-1H-imidazol-2-yl) hydrazono]propyl]-phenyl]-N-[(phenylmethoxy)carbonyl]-homoserine]: 960 nM; for `O=C(NC(CCOc1ccc(/C=N/NC2=NCCN2)cc1)C(=O)O)OCc1ccccc1` (stereo not drawn) [ex 13]: 292 nM.

(Values after patent US6391904B1, “Iminoguanidine derivatives, preparation method, use as medicines” (Aventis Pharma S.A., priority 1998, dated 2002).)
